Data on 17 molecules can be found in patent US6218393A, “Anthranilic acid derivatives as multi drug resistance modulators” (priority 1997, dated 2001).

In data set [1] the test system is AR 1.0 cells. Description: Drug accumulation assay: daunorubicin accumulation in AR 1.0 cells. It counts as cell-based. Conditions: Mus musculus, 100% = accumulation with verapamil 100 μM, 1 hr, 37° C. The procedure, abridged:
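Daunorubicin accumulation was measured in cells plated 48 h beforehand. These were AR 1.0 cells, an MDR-resistant derivative of mouse EMT6 mammary carcinoma, cultured at 37 °C in 5% CO2 in RPMI 1640 plus 10% foetal calf serum and 2 mM glutamine.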

The test system of data set [2] is AR 1.0 cells. Description: Potentiation of doxorubicin toxicity: proliferation assay (sulphorhodamine B). The data set is classed as cell-based, mouse. The text has this: (a) Selected compounds of formula (I) were examined for their ability to potentiate the toxicity of doxorubicin in AR 1.0 cells.
The subject of data set [3] is AR 1.0 cells. The experiment in a line: Potentiation index with doxorubicin titration. The settings on record: for Potentiation Index at RMA concentration 300 nM: Table C2, RMA 300 nM; for Potentiation Index at RMA concentration 500 nM: Table C2, RMA 500 nM; for Potentiation Index at RMA concentration 100 nM: Table C2, RMA 100 nM; for Potentiation Index at RMA concentration 10 nM: Table C2, RMA 10 nM; for Potentiation Index at RMA concentration 30 nM: Table C2, RMA 30 nM. The data set is classed as cell-based, mouse. A digest of the protocol: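 Doxorubicin IC50 in AR 1.0 cells (MDR subline of EMT6 mouse mammary carcinoma) determined by sulphorhodamine B after 4-day culture across 0.263 nM-17.24 μM, with and without a fixed dose of test compound; their ratio gives the PI.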

[4] abbreviates: Mus musculus, 96 h, compound alone, four day proliferation, read-out: Compound Toxicity (IC50).
Setting [5] is: with fixed doxorubicin 0.34 μm, four days, 5760 min, read-out: Toxicity with Cytotoxic Agent (IC50).

Take `COc1cc2c(cc1OC)CN(CCc1ccc(NC(=O)c3ccccc3NC(=O)c3ccncc3)cc1)CC2` [compound 9483, N-(2-{4-[2-(6,7-Dimethoxy-3,4-dihydro-1H-isoquinolin-2-yl)-ethyl]-phenylcarbamoyl}-phenyl}-isonicotinamide]: the IC50 in data set [1] was found to be 1700 nM; in data set [2] (setting [4]), 8500 nM; in data set [2] (setting [5]) it was 350 nM. The “Potentiation Index at RMA concentration 300 nM” value in data set [3] turned out to be 14. For the same molecule, in data set [3], the “Potentiation Index at RMA concentration 500 nM” value worked out at 24.
With `COc1cc2c(cc1OC)CN(CCc1ccc(NC(=O)c3ccccc3NC(=O)c3ccc(C)c(C)c3)cc1)CC2` [compound 9538, 2-(3,4-Dimethyl-benzoylamino)-N-{4-[2-(6,7-dimethoxy-3,4-dihydro-1H-isoquinolin-2-yl)-ethyl]-phenyl}-benzamide], the values for the half-maximal inhibitory concentration (IC50) in data set [1], in data set [2] (setting [4]) and in data set [2] (setting [5]) were 220 nM, 2300 nM and 14 nM, respectively. In addition, the “Potentiation Index at RMA concentration 100 nM” value in data set [3] came to 43. In addition, in data set [3], the “Potentiation Index at RMA concentration 300 nM” value turned out to be 128.
For `COc1cc2c(cc1OC)CN(CCc1ccc(NC(=O)c3ccccc3NC(=O)c3ccc(C)cc3)cc1)CC2` [compound 9504, 2-(4-Methyl-benzoylamino)-N-{4-[2-(6,7-dimethoxy-3,4-dihydro-1H-isoquinolin-2-yl)-ethyl]-phenyl}-benzamide], the concentration for half-maximal inhibition (IC50) in data set [1] amounted to 260 nM; in data set [2] (setting [4]) it was 5000 nM; in data set [2] (setting [5]), 60 nM. Also, the “Potentiation Index at RMA concentration 100 nM” value in data set [3] came to 34. Besides, the “Potentiation Index at RMA concentration 300 nM” value in data set [3] turned out to be 150. For the same molecule, the “Potentiation Index at RMA concentration 500 nM” value in data set [3] was determined as 267.
Molecule `COc1cc2c(cc1OC)CN(CCc1ccc(NC(=O)c3ccc([N+](=O)[O-])cc3NC(=O)c3cnc4ccccc4n3)cc1)CC2` [compound 9541, Quinoxaline-2-carboxylic acid (2-{4-(2-(6,7-dimethoxy-3,4-dihydro-1H-isoquinolin-2-yl)-ethyl]-phenylcarbamoyl}-5-nitro-phenyl)-amide] gave an IC50 in data set [1] of 20 nM. Also, the IC50 in data set [2] (setting [4]) was 860 nM. In addition, the IC50 in data set [2] (setting [5]) was determined as 6 nM. Further, in data set [3], the “Potentiation Index at RMA concentration 10 nM” value was determined as 75, the “Potentiation Index at RMA concentration 30 nM” value was found to be 150, the “Potentiation Index at RMA concentration 100 nM” value is recorded as 160 and the “Potentiation Index at RMA concentration 300 nM” value was found to be 160.
On to `COc1cc2c(cc1OC)CN(CCc1ccc(NC(=O)c3ccc(Cl)cc3NC(=O)c3cnc4ccccc4c3)cc1)CC2` [compound 9586, Quinoline-3-carboxylic acid (2-{4-[2-(6,7-dimethoxy-3,4-dihydro-1H-isoquinolin-2-yl)-ethyl]-phenylcarbamoyl}-5-chloro-phenyl)-amide], for which the 50% inhibitory concentration (IC50) in data set [1] was determined as 180 nM. In data set [2] (setting [4]), the half-inhibitory concentration (IC50) turned out to be 7400 nM. For the same molecule, in data set [3], the “Potentiation Index at RMA concentration 10 nM” value came out at 5 and the “Potentiation Index at RMA concentration 30 nM” value was determined as 6.
For `COc1cc2c(cc1OC)CN(CCc1ccc(NC(=O)c3ccccc3NC(=O)c3c(F)cccc3F)cc1)CC2` [compound 9514, 2-(2,6-Difluoro-benzoylamino)-N-{4-[2-(6,7-dimethoxy-3,4-dihydro-1H-isoquinolin-2-yl)-ethyl]-phenyl}-benzamide], the IC50 in data set [1] is 250 nM. Further, the concentration for half-maximal inhibition (IC50) in data set [2] (setting [4]) came to 7000 nM. Further, in data set [3], the “Potentiation Index at RMA concentration 300 nM” value is 40 and the “Potentiation Index at RMA concentration 500 nM” value was 120.
Consider `COc1cc2c(cc1OC)CN(CCNC(=O)c1ccc([N+](=O)[O-])cc1NC(=O)c1ccc(C(C)C)cc1)CC2` [compound 9420, 2-(4-Isopropyl-benzoylamino)-N-[2-(6,7-dimethoxy-3,4-dihydro-1H-isoquinolin-2-yl)-ethyl]-4-nitro-benzamide], for which the figures for the concentration for half-maximal inhibition (IC50) in data set [1], in data set [2] (setting [4]) and in data set [2] (setting [5]) were 1900 nM, 7000 nM and 400 nM, respectively. The “Potentiation Index at RMA concentration 500 nM” value in data set [3] came to 25.
On to `CCCCCc1ccc(C(=O)Nc2ccccc2C(=O)NCCN2CCc3cc(OC)c(OC)cc3C2)cc1` [compound 9395, 2-(4-Pentyl-benzoylamino)-N-[2-(6,7-dimethoxy-3,4-dihydro-1H-isoquinolin-2-yl)-ethyl]-benzamide], for which the figures for the IC50 in data set [1], in data set [2] (setting [4]) and in data set [2] (setting [5]) were 1300 nM, 9000 nM and 150 nM, respectively. In addition, the “Potentiation Index at RMA concentration 500 nM” value in data set [3] was determined as 21.
In the case of `COc1cc2c(cc1OC)CN(CCc1ccc(NC(=O)c3ccccc3NC(=O)c3cccs3)cc1)CC2` [compound 9471, Thiophene-2-carboxylic acid (2-{4-[2-(6,7-dimethoxy-3,4-dihydro-1H-isoquinolin-2-yl)-ethyl]-phenylcarbamoyl}-phenyl)-amide], the half-maximal inhibitory concentration (IC50) in data set [1] was found to be 200 nM. Further, in data set [2] (setting [4]), the IC50 stood at 2600 nM. Also, in data set [3], the “Potentiation Index at RMA concentration 300 nM” value is reported as 115 and the “Potentiation Index at RMA concentration 500 nM” value turned out to be 230.
`COc1cc2c(cc1OC)CN(Cc1ccc(NC(=O)c3ccccc3NC(=O)c3cnc4ccccc4n3)cc1)CC2` [compound 9572, Quinoxaline-2-carboxylic acid {2-[4-(6,7-dimethoxy-3,4-dihydro-1H-isoquinolin-2-ylmethyl)-phenylcarbamoyl}-phenyl}-amide] yielded a concentration for half-maximal inhibition (IC50) in data set [1] of 53 nM. The IC50 in data set [2] (setting [4]) was determined as 1700 nM. The IC50 in data set [2] (setting [5]) stood at 14 nM. Moreover, in data set [3], the “Potentiation Index at RMA concentration 10 nM” value came to 2.7, the “Potentiation Index at RMA concentration 30 nM” value was 25 and the “Potentiation Index at RMA concentration 100 nM” value is reported as 83.
Take `COc1cc2c(cc1OC)CN(CCc1ccc(NC(=O)c3cc(O)ccc3NC(=O)c3cnc4ccccc4n3)cc1)CC2` [compound 9554, Quinoxaline-2-carboxylic acid (2-{4-[2-(6,7-dimethoxy-3,4-dihydro-1H-isoquinolin-2-yl)-ethyl]-phenylcarbamoyl}-4-hydroxy-phenyl)-amide]: the 50% inhibitory concentration (IC50) in data set [1] is 990 nM; in data set [2] (setting [4]) it was 3000 nM; in data set [2] (setting [5]), 50 nM. For the same molecule, in data set [3], the “Potentiation Index at RMA concentration 100 nM” value was 90.
With `COc1cc2c(cc1OC)CN(CCNC(=O)c1ccccc1NC(=O)c1ccc(C3CCCCC3)cc1)CC2` [compound 9331, 2-(4-Cyclohexyl-benzoylamino)-N-[2-(6,7-dimethoxy-3,4-dihydro-1H-isoquinolin-2-yl)-ethyl]-benzamide], the results for the half-inhibitory concentration (IC50) in data set [1], in data set [2] (setting [4]) and in data set [2] (setting [5]) were 1300 nM, 7000 nM and 40 nM, respectively. For the same molecule, the “Potentiation Index at RMA concentration 300 nM” value in data set [3] stood at 40. In addition, the “Potentiation Index at RMA concentration 500 nM” value in data set [3] is reported as 120.
In data set [1], `COc1cc2c(cc1OC)CN(CCc1ccc(NC(=O)c3ccccc3NC(=O)c3ccccc3F)cc1)CC2` [compound 9489, 2-(2-Fluoro-benzoylamino)-N-{4-[2-(6,7-dimethoxy-3,4-dihydro-1H-isoquinolin-2-yl)-ethyl]-phenyl}-benzamide] gave an IC50 of 150 nM. The IC50 in data set [2] (setting [4]) was 7000 nM. Also, the IC50 in data set [2] (setting [5]) turned out to be 50 nM. Also, in data set [3], the “Potentiation Index at RMA concentration 100 nM” value was found to be 77, the “Potentiation Index at RMA concentration 300 nM” value was found to be 192 and the “Potentiation Index at RMA concentration 500 nM” value came out at 303.
Consider `COc1cc2c(cc1OC)CN(CCc1ccc(NC(=O)c3ccccc3NC(=O)c3cnc(C)cn3)cc1)CC2` [compound 9527, 5-Methyl-pyrazine-2-carboxylic acid (2-{4-[2-(6,7-dimethoxy-3,4-dihydro-1H-isoquinolin-2-yl)-ethyl]-phenylcarbamoyl}-phenyl)-amide], for which, in data set [1], the 50% inhibitory concentration (IC50) came to 52 nM. Also, in data set [2] (setting [4]), the half-maximal inhibitory concentration (IC50) amounted to 4500 nM. For the same molecule, in data set [2] (setting [5]), the IC50 turned out to be 7 nM. Moreover, in data set [3], the “Potentiation Index at RMA concentration 10 nM” value was 1.5, the “Potentiation Index at RMA concentration 30 nM” value amounted to 11, the “Potentiation Index at RMA concentration 100 nM” value stood at 50 and the “Potentiation Index at RMA concentration 300 nM” value amounted to 103. In addition, the “Potentiation Index at RMA concentration 500 nM” value in data set [3] is reported as 120.
With `COc1cc2c(cc1OC)CN(CCc1ccc(NC(=O)c3cc(F)ccc3NC(=O)c3cnc4ccccc4c3)cc1)CC2` [compound 9574, Quinoline-3-carboxylic acid (2-{4-[2-(6,7-dimethoxy-3,4-dihydro-1H-isoquinolin-2-yl)-ethyl]-phenylcarbamoyl}-4-fluoro-phenyl)-amide], the concentration for half-maximal inhibition (IC50) in data set [1] was 19 nM. Besides, the IC50 in data set [2] (setting [4]) is 320 nM. In data set [3], the “Potentiation Index at RMA concentration 10 nM” value is 16, the “Potentiation Index at RMA concentration 30 nM” value came to 60 and the “Potentiation Index at RMA concentration 100 nM” value came out at 94.
As for `COc1cc2c(cc1OC)CN(CCCc1ccc(NC(=O)c3ccccc3NC(=O)c3cnc4ccccc4n3)cc1)CC2` [compound 9567, Quinoxaline-2-carboxyXic acid (2-{4-[3-(6,7-dimethoxy-3,4-dihydro-1H-isoquinolin-2-yl)-propyl]-phenylcarbamoyl}-phenyl)-amide], the values for the half-inhibitory concentration (IC50) in data set [1], in data set [2] (setting [4]) and in data set [2] (setting [5]) were 160 nM, 1700 nM and 28 nM, respectively. For the same molecule, in data set [3], the “Potentiation Index at RMA concentration 10 nM” value was determined as 1.7. Also, the “Potentiation Index at RMA concentration 30 nM” value in data set [3] was found to be 8. Also, in data set [3], the “Potentiation Index at RMA concentration 100 nM” value was 112.
The molecule `COc1cc2c(cc1OC)CN(CCc1ccc(NC(=O)c3ccccc3NC(=O)c3ccc4ccccc4c3)cc1)CC2` [compound 9476, Naphthaiene-2-carboxylic acid (2-{4-[2-(6,7-dimethoxy-3,4-dihydro-1H-isoquinolin-2-yl)-ethyl]-phenylcarbamoyl}-phenyl)-amide] had an IC50 in data set [1] of 350 nM. Also, the IC50 in data set [2] (setting [4]) worked out at 2000 nM. In data set [3], the “Potentiation Index at RMA concentration 300 nM” value turned out to be 83 and the “Potentiation Index at RMA concentration 500 nM” value stood at 136.
